The record followed here is patent US10040781B2, “Tank-binding kinase inhibitor compounds” (Gilead Sciences, Inc., priority 2014, dated 2018).

In general, IC50 refers to the concentration at which inhibition is half-maximal.

One assay concerns the target IKKε (Homo sapiens (Human), UniProt Q14164). Nature of the assay: IKKε TR-FRET enzymatic assay. The conditions noted are these: TR-FRET, 2×Km ATP; geometric mean of minimum four determinations; read-out: IKKe IC50. The class given is biochemical. On the technique in general: Time-resolved FRET reads energy transfer from a long-lived donor to a nearby acceptor.
The next assay concerns the target TBK1 (Homo sapiens (Human), UniProt Q9UHD2). Put plainly: TBK1 TR-FRET enzymatic assay.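 Note: phosphorylation of a biotinylated Ser/Thr peptide by purified full-length recombinant TBK1, read by TR-FRET after 240 min at 25 °C, IC50 is the geometric mean of at least four runs.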
Another assay has as its target hJAK2 (Homo sapiens (Human), UniProt O60674). Put plainly: hJAK2 LANCE TR-FRET enzymatic assay. The class given is biochemical. The following applies: read-out: JAK2 IC50.

Chain of hJAK2 (O60674 whole entry): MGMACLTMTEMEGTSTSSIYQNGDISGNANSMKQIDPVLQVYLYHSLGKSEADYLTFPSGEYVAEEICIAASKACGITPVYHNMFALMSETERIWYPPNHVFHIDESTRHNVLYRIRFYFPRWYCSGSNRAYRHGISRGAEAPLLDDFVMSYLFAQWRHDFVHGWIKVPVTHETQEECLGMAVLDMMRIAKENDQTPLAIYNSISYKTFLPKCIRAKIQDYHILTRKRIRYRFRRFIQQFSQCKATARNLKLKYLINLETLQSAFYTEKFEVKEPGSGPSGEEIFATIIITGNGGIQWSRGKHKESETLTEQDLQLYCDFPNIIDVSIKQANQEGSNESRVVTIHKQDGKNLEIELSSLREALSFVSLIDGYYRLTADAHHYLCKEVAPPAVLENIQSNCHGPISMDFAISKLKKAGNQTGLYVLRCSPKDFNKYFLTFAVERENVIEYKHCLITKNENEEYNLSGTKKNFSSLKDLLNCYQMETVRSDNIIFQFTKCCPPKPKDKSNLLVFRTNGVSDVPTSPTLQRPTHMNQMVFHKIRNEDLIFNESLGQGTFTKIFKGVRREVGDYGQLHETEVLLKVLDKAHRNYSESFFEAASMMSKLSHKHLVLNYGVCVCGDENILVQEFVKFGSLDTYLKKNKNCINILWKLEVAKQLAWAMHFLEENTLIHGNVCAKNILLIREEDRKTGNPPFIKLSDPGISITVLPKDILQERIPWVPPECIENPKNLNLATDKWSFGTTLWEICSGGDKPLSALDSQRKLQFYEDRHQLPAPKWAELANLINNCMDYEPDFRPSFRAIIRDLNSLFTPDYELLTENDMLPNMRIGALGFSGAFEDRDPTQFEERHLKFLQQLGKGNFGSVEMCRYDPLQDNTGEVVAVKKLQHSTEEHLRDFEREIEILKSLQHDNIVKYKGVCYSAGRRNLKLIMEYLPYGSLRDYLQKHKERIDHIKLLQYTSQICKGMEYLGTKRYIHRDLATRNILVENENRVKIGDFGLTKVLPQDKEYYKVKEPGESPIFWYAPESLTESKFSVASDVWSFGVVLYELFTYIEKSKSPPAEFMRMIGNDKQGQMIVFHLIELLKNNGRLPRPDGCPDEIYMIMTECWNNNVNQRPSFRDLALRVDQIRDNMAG
Chain of IKKε (Q14164 whole entry): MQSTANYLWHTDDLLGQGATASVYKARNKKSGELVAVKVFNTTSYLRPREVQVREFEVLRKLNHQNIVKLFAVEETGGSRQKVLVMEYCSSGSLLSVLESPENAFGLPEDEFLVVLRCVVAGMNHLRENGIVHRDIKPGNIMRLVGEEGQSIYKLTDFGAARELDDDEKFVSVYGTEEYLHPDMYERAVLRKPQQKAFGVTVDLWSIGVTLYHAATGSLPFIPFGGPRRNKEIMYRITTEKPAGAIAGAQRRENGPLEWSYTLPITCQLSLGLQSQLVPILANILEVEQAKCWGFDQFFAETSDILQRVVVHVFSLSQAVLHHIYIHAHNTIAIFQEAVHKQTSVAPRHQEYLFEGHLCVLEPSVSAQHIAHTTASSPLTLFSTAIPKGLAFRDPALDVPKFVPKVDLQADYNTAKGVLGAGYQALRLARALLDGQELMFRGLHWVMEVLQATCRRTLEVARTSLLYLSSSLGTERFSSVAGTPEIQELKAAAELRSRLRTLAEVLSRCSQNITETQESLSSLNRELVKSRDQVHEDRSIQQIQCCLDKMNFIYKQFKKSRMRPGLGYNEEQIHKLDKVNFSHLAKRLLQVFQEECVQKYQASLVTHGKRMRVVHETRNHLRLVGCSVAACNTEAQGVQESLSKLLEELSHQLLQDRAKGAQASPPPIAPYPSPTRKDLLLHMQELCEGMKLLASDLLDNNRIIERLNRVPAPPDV
Chain of TBK1 (Q9UHD2 whole entry): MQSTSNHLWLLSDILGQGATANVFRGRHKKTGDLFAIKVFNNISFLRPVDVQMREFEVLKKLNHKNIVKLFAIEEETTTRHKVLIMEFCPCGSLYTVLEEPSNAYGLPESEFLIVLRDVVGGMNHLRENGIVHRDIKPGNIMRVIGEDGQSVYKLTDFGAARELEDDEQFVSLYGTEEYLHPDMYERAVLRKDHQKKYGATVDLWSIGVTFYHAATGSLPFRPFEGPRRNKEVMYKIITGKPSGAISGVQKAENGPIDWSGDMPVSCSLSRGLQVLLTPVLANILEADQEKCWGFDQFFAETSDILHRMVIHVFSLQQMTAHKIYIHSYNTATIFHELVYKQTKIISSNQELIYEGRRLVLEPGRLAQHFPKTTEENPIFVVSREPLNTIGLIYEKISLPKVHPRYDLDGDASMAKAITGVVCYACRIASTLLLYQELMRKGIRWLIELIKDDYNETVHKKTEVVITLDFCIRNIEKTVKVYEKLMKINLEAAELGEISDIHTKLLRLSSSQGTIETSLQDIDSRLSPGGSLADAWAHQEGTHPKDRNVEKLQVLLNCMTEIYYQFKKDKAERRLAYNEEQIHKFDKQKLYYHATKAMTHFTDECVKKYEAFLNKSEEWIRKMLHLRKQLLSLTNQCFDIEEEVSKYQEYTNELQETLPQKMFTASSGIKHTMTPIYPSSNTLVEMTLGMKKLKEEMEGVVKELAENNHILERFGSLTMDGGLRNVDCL
Method for TBK1: Enzymatic activity of IKKε and TBK1 was measured using a homogeneous time resolved fluorescence resonance energy transfer (TR-FRET) assay that monitors enzyme dependent phosphorylation of a biotinylated serine/threonine peptide substrate. […] TBK1 and IKKε were expressed and purified as full length recombinant proteins. Detection reagents for the assay were purchased from Cisbio. […] After an assay reaction time of 240 minutes at 25° C., reactions were terminated with EDTA.
All IC50 values represent geometric mean values of a minimum of four determinations.

Consider `Cc1cc(Nc2ncnc(-c3ccc(O[C@H]4CCN(C(=O)CC#N)C[C@H]4F)c(C#N)c3)n2)ccc1C1CCN(C)CC1` [Example 488, 2-(((3R,4S)-1-(2-cyanoacetyl)-3-fluoropiperidin-4-yl)oxy)-5-(4-((3-methyl-4-(1-methylpiperidin-4-yl)phenyl)amino)-1,3,5-triazin-2-yl)benzonitrile], for which the IC50 at IKKε amounted to 1 nM; against TBK1, 4 nM; at hJAK2 it was 131 nM.
The corresponding values for `COCC(=O)N1CC[C@H](Oc2ccc(-c3ncnc(Nc4ccc(C5CCN(C)CC5)c(C)c4)n3)cc2C#N)[C@H](F)C1` [Example 489, 2-(((3R,4S)-3-fluoro-1-(2-methoxyacetyl)piperidin-4-yl)oxy)-5-(4-((3-methyl-4-(1-methylpiperidin-4-yl)phenyl)amino)-1,3,5-triazin-2-yl)benzonitrile] are 1 nM, 4 nM and 183 nM.
As to `N#Cc1cc(-c2ncnc(Nc3ccc(N4CCN(C5COC5)CC4)cc3)n2)ccc1OCC1(C#N)COC1` [Example 491, 3-((2-cyano-4-(4-((4-(4-(oxetan-3-yl)piperazin-1-yl)phenyl)amino)-1,3,5-triazin-2-yl)phenoxy)methyl)oxetane-3-carbonitrile], the IC50 worked out at 33 nM on IKKε, 25 nM at TBK1 and 216 nM at hJAK2.
On the same counts, the results for `COCC(=O)N1CC[C@H](Oc2ccc(-c3ncnc(Nc4ccc(C5CCN(C=O)CC5)c(C)c4)n3)cc2C#N)[C@H](F)C1` [Example 492, 2-(((3R,4S)-3-fluoro-1-(2-methoxyacetyl)piperidin-4-yl)oxy)-5-(4-((4-(1-formylpiperidin-4-yl)-3-methylphenyl)amino)-1,3,5-triazin-2-yl)benzonitrile] are 1 nM, 2 nM and 482 nM.
The corresponding values for `Cc1cc(Nc2ncnc(-c3ccc(O[C@H]4CCN(C(=O)[C@H](C)O)C[C@H]4F)c(C#N)c3)n2)ccc1C1CCN(C=O)CC1` [Example 493, 2-(((3R,4S)-3-fluoro-1-((S)-2-hydroxypropanoyl)piperidin-4-yl)oxy)-5-(4-((4-(1-formylpiperidin-4-yl)-3-methylphenyl)amino)-1,3,5-triazin-2-yl)benzonitrile] are 1 nM, 2 nM and 782 nM.
On the same counts, the results for `N#CCC(=O)Nc1ccc(-c2ncnc(Nc3ccc(N4CCN(C5COC5)CC4)cc3)n2)cc1C#N` [Example 494, 2-cyano-N-(2-cyano-4-(4-((4-(4-(oxetan-3-yl)piperazin-1-yl)phenyl)amino)-1,3,5-triazin-2-yl)phenyl)acetamide] are 29 nM, 19 nM and 12 nM.
For `CCC(=O)Nc1ccc(-c2ncnc(Nc3ccc(N4CCN(C5COC5)CC4)cc3)n2)cc1C#N` [Example 495, N-(2-cyano-4-(4-((4-(4-(oxetan-3-yl)piperazin-1-yl)phenyl)amino)-1,3,5-triazin-2-yl)phenyl)propionamide], the IC50 on IKKε is 119 nM; on TBK1 it was 40 nM; at hJAK2, 109 nM.
The corresponding values for `N#Cc1cc(-c2ncnc(Nc3ccc(N4CCN(C5COC5)CC4)cc3)n2)ccc1NC(=O)CC(F)(F)F` [Example 496, N-(2-cyano-4-(4-((4-(4-(oxetan-3-yl)piperazin-1-yl)phenyl)amino)-1,3,5-triazin-2-yl)phenyl)-3,3,3-trifluoropropanamide] are 8 nM, 6 nM and 8 nM.
On the same counts, the results for `COc1cc(Nc2ncnc(-c3ccc(O[C@H]4CCN(C(=O)[C@H](C)O)C[C@H]4F)c(C#N)c3)n2)ccc1N1CCN(C)C[C@@H]1C` [Example 499, 5-(4-((4-((S)-2,4-dimethylpiperazin-1-yl)-3-methoxyphenyl)amino)-1,3,5-triazin-2-yl)-2-(((3R,4S)-3-fluoro-1-((S)-2-hydroxypropanoyl)piperidin-4-yl)oxy)benzonitrile] are 1 nM, 2 nM and 79 nM.
As for `CCn1cc(Nc2ncnc(-c3ccc(O[C@H]4CCN(C(=O)CO)C[C@H]4F)c(C#N)c3)n2)nn1` [Example 502, 5-(4-((1-ethyl-1H-1,2,3-triazol-4-yl)amino)-1,3,5-triazin-2-yl)-2-(((3R,4S)-3-fluoro-1-(2-hydroxyacetyl)piperidin-4-yl)oxy)benzonitrile], the half-maximal inhibitory concentration (IC50) is 29 nM at IKKε, 28 nM against TBK1 and not below 1000 nM on hJAK2.
As to `CCn1ncc(Nc2ncnc(-c3ccc(O[C@H]4CCN(C(=O)CO)C[C@H]4F)c(C#N)c3)n2)n1` [Example 503, 5-(4-((2-ethyl-2H-1,2,3-triazol-4-yl)amino)-1,3,5-triazin-2-yl)-2-(((3R,4S)-3-fluoro-1-(2-hydroxyacetyl)piperidin-4-yl)oxy)benzonitrile], the IC50 is 20 nM on IKKε, 7 nM at TBK1 and not below 1000 nM on hJAK2.
The corresponding values for `N#Cc1cc(-c2ncnc(Nc3ccc(N4CCN(C5COC5)CC4)cc3)n2)ccc1O[C@H]1CCN(C(=O)[C@@H]2CCCO2)C[C@H]1F` [Example 504, 2-(((3R,4S)-3-fluoro-1-((S)-tetrahydrofuran-2-carbonyl)piperidin-4-yl)oxy)-5-(4-((4-(4-(oxetan-3-yl)piperazin-1-yl)phenyl)amino)-1,3,5-triazin-2-yl)benzonitrile] are 5 nM, 4 nM and not below 1000 nM.
On the same counts, the results for `N#Cc1cc(-c2ncnc(Nc3ccc(N4CCN(C5COC5)CC4)cc3)n2)ccc1O[C@H]1CCN(C(=O)[C@H]2CCCO2)C[C@H]1F` [Example 505, 2-(((3R,4S)-3-fluoro-1-((R)-tetrahydrofuran-2-carbonyl)piperidin-4-yl)oxy)-5-(4-((4-(4-(oxetan-3-yl)piperazin-1-yl)phenyl)amino)-1,3,5-triazin-2-yl)benzonitrile] are 41 nM, 12 nM and 532 nM.
The corresponding values for `N#Cc1cc(-c2ncnc(Nc3cnn(CCO)c3)n2)ccc1O[C@H]1CCN(C(=O)CO)C[C@H]1F` [Example 506, 2-(((3R,4S)-3-fluoro-1-(2-hydroxyacetyl)piperidin-4-yl)oxy)-5-(4-((1-(2-hydroxyethyl)-1H-pyrazol-4-yl)amino)-1,3,5-triazin-2-yl)benzonitrile] are 3 nM, 3 nM and 601 nM.
As to `N#Cc1cc(-c2ncnc(Nc3cn[nH]c3)n2)ccc1O[C@H]1CCN(C(=O)CO)C[C@H]1F` [Example 507, 5-(4-((1H-pyrazol-4-yl)amino)-1,3,5-triazin-2-yl)-2-(((3R,4S)-3-fluoro-1-(2-hydroxyacetyl)piperidin-4-yl)oxy)benzonitrile], the IC50 came to 2 nM on IKKε, 3 nM against TBK1 and 432 nM on hJAK2.
Regarding `N#Cc1cc(-c2ncnc(Nc3ccc(C4CCN(C5COC5)CC4)cc3)n2)ccc1O[C@H]1CCN(C(=O)[C@@H](O)CO)C[C@H]1F` [Example 509, 2-(((3R,4S)-1-((S)-2,3-dihydroxypropanoyl)-3-fluoropiperidin-4-yl)oxy)-5-(4-((4-(1-(oxetan-3-yl)piperidin-4-yl)phenyl)amino)-1,3,5-triazin-2-yl)benzonitrile], the IC50 on IKKε is 1 nM; at TBK1, 3 nM; on hJAK2 it was 699 nM.
